Results published in US9593110B2, “Neprilysin inhibitors” (Theravence Biopharma R&D IP, LLC, priority 2014, dated 2017).

What follows are compounds tested against human NEP (Homo sapiens (Human), UniProt P08473) (assay: In vitro enzyme inhibition assay at human NEP). Conditions: pKi, recombinant human NEP, fluorogenic peptide substrate, 37° C.
human NEP, sequence (P08473 52-750): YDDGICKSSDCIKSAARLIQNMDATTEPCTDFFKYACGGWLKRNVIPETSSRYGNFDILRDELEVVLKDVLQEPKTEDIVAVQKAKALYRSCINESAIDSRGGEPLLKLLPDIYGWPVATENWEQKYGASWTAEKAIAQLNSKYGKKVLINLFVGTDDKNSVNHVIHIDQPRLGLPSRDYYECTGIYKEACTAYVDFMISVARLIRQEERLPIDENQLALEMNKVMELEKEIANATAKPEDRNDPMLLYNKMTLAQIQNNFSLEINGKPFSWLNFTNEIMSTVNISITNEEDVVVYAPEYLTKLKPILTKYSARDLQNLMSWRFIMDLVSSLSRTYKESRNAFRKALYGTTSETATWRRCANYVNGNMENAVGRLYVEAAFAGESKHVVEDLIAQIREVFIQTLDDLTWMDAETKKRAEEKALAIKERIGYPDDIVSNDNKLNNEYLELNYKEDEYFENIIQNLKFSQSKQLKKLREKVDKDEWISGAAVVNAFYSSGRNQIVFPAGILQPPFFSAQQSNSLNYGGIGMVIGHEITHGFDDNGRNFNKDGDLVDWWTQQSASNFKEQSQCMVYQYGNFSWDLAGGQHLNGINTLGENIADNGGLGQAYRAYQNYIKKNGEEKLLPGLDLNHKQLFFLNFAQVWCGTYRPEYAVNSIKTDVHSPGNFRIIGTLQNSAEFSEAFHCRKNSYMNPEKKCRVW
Procedure: The inhibitory activities of compounds at human and rat neprilysin (EC 3.4.24.11; NEP) and human angiotensin converting enzyme (ACE) were determined using in vitro assays as described below.
The assays were performed in 384-well white opaque plates at 37° C. using the fluorogenic peptide substrates at a concentration of 10 μM in Assay Buffer (NEP: 50 mM HEPES, pH 7.5, 100 mM NaCl, 0.01% polyethylene glycol sorbitan monolaurate (Tween-20), 10 μM ZnSO4; ACE: 50 mM HEPES, pH 7.5, 100 mM NaCl, 0.01% Tween-20, 1 μM ZnSO4).
Test compounds were assayed over the range of concentrations from 10 μM to 20 pM. Test compounds were added to the enzymes and incubated for 30 minute at 37° C. prior to initiating the reaction by the addition of substrate.
Plates were read on a fluorometer with excitation and emission wavelengths set to 320 nm and 405 nm, respectively Inhibition constants were obtained by nonlinear regression of the data using the equation (GraphPad Software, Inc., San Diego, Calif.): v=v0/[1+(I/K′)] where v is the reaction rate, v0 is the uninhibited reaction rate, I is the inhibitor concentration and K′ is the apparent inhibition constant.

Compared with `Cc1n[nH]c(C(=O)N[C@H](Cc2ccc(-c3cc(Cl)ccc3F)cc2)C[C@@H](N)C(=O)O)c1F` [Example 16-20, (2R,4R)-2-Amino-5-(5′-chloro-2′-fluorobiphenyl-4-yl)-4-[(4-fluoro-5-methyl-2H-pyrazole-3-carbonyl)amino]pentanoic acid], `CCOC(=O)[C@H](N)C[C@@H](Cc1ccc(-c2cc(Cl)ccc2F)cc1)NC(=O)c1cc(O)no1` [Example 16-11, (2R,4R)-2-Amino-5-(5′-chloro-2′-fluorobiphenyl-4-yl)-4-[(3-hydroxyisoxazole-5-carbonyl)amino]pentanoic acid ethyl ester] is higher in Ki: 1.26 to 3.16 nM for the first, 3.16 to 10 nM for the second. The first binds more tightly here.

First: NCCCC(=O)NC[C@H](C[C@@H](Cc1ccc(-c2cc(Cl)ccc2F)cc1)NC(=O)c1cnn[nH]1)C(=O)O [Example 68, (2S,4S)-2-[(4-Aminobutyrylamino)methyl]-5-(5′-chloro-2′-fluorobiphenyl-4-yl)-4-[(3H-[1,2,3]triazole-4-carbonyl)amino]pentanoic acid]
Second: O=C(N[C@H](Cc1ccc(-c2cc(Cl)ccc2F)cc1)C[C@@H](CNCCO)C(=O)O)c1cnn[nH]1 (single isomer, unassigned) [Example 48a]
The Ki of the first is higher: 3.16 to 10 nM for the first, no more than 1 nM for the second. The second binds more tightly here.

First: CC(C)c1coc(C(=O)N[C@H](Cc2ccc(-c3cc(Cl)ccc3F)cc2Cl)C[C@H](N)C(=O)O)n1 [Example 18-1, (2S,4R)-2-Amino-5-(3,5′-dichloro-2′-fluorobiphenyl-4-yl)-4-[(4-isopropyloxazole-2-carbonyl)amino]pentanoic acid]
Second: CC(C)c1coc(C(=O)N[C@H](Cc2ccc(-c3cc(Cl)ccc3F)cc2)C[C@@H](NC(=O)[C@H](C)N)C(=O)O)n1 [Example 36-1, (2R,4R)-2-((S)-2-Aminopropionylamino)-5-(5′-chloro-2′-fluorobiphenyl-4-yl)-4-[(4-isopropyloxazole-2-carbonyl)amino]pentanoic Acid]
The Ki of the first is higher: 3.16 to 10 nM for the first, 1.26 to 3.16 nM for the second. The second binds more tightly here.

`N#CC[C@H](C[C@@H](Cc1ccc(-c2cc(Cl)ccc2F)cc1)NC(=O)c1c[nH]nn1)C(=O)O` [Example 51, (2S,4S)-5-(5′-chloro-2′-fluorobiphenyl-4-yl)-2-cyanomethyl-4-[(3H-[1,2,3]triazole-4-carbonyl)amino]pentanoic acid] and `CN(CCO)C[C@H](C[C@@H](Cc1ccc(-c2cc(Cl)ccc2F)cc1)NC(=O)c1c[nH]nn1)C(=O)O` [Example 106, (2S,4S)-5-(5′-Chloro-2′-fluorobiphenyl-4-yl)-2-{[(2-hydroxyethyl)-methylamino]methyl}-4-[(1H-[1,2,3]triazole-4-carbonyl)amino]pentanoic Acid] fall in the same range of Ki: 1.26 to 3.16 nM for the first, 1.26 to 3.16 nM for the second.

`O=C(N[C@H](Cc1ccc(-c2cc(Cl)ccc2F)cc1)C[C@@H](CN1CC(F)C1)C(=O)O)c1cnn[nH]1` [Example 91b, (2S,4S)-5-(5′-Chloro-2′-fluorobiphenyl-4-yl)-2-(3-fluoroazetidin-1-ylmethyl)-4-[(3H-[1,2,3]triazole-4-carbonyl)amino]pentanoic Acid] and `O=C(N[C@H](Cc1ccc(-c2cc(Cl)ccc2F)cc1)C[C@@H](CN1CC(O)C1)C(=O)O)c1cnn[nH]1` [Example 83b, (2S,4S)-5-(5′-Chloro-2′-fluorobiphenyl-4-yl)-2-(3-hydroxyazetidin-1-ylmethyl)-4-[(3H-[1,2,3]triazole-4-carbonyl)amino]pentanoic Acid] cannot be ordered by Ki: no more than 1 nM for the first, no more than 1 nM for the second.

First: O=C(N[C@H](Cc1ccc(-c2cc(Cl)ccc2F)cc1)CC(C(=O)O)c1ccccn1)c1cnn[nH]1 (stereo in doubt) [Example 76, (S)-5-(5′-Chloro-2′-fluorobiphenyl-4-yl)-2-pyridin-2-yl-4-[(3H-[1,2,3]triazole-4-carbonyl)amino]pentanoic Acid]
Second: O=C(N[C@H](Cc1ccc(-c2cc(Cl)ccc2F)cc1)C[C@@H](Cn1ccnn1)C(=O)O)c1cnn[nH]1 [Example 61a, (2S,4S)-5-(5′-Chloro-2′-fluorobiphenyl-4-yl)-4-[(3H-[1,2,3]triazole-4-carbonyl)amino]-2-[1,2,3]triazol-1-ylmethylpentanoic Acid]
The Ki of the first is higher: 12.6 to 31.6 nM for the first, no more than 1 nM for the second.

`NC(=O)C[C@@H](C[C@@H](Cc1ccc(-c2cccc(F)c2)cc1)NC(=O)c1cnn[nH]1)C(=O)O` [Example 54, (2R,4S)-2-Carbamoylmethyl-5-(3′-fluorobiphenyl-4-yl)-4-[(3H-[1,2,3]triazole-4-carbonyl)amino]pentanoic Acid] and `O=C(N[C@H](Cc1ccc(-c2cc(Cl)ccc2F)cc1)C[C@@H](CNCCO)C(=O)O)c1cnn[nH]1` (single isomer, unassigned) [Example 48b] fall in the same range of Ki: 1.26 to 3.16 nM for the first, 1.26 to 3.16 nM for the second.

First: O=C(N[C@H](Cc1ccc(-c2cc(Cl)ccc2F)cc1)C[C@@H](CN1CC(CO)C1)C(=O)O)c1cnn[nH]1 [Example 93b, (2S,4S)-5-(5′-Chloro-2′-fluorobiphenyl-4-yl)-2-(3-hydroxymethyl-azetidin-1-ylmethyl)-4-[(3H-[1,2,3]triazole-4-carbonyl)amino]pentanoic Acid]
Second: O=C(N[C@H](Cc1ccc(-c2cc(Cl)ccc2F)cc1)C[C@@H](NC(=O)[C@@H]1CCCN1)C(=O)O)c1cnn[nH]1 [Example 55, (2R,4R)-5-(5′-Chloro-2′-fluorobiphenyl-4-yl)-2-[((S)-pyrrolidine-2-carbonyl)amino]-4-[(3H-[1,2,3]triazole-4-carbonyl)amino]pentanoic Acid]
The Ki of the first is lower: no more than 1 nM for the first, 3.16 to 10 nM for the second.

Compared with `COC(=O)N[C@H](C[C@@H](Cc1ccc(-c2ccccc2)cc1)NC(=O)c1c[nH]nn1)C(=O)O` [Example 31, (2R,4R)-5-Biphenyl-4-yl-2-methoxycarbonylamino-4-[(1H-[1,2,3]triazole-4-carbonyl)amino]pentanoic Acid], `CS(=O)(=O)N[C@H](C[C@@H](Cc1ccc(-c2ccccc2)cc1)NC(=O)c1c[nH]nn1)C(=O)O` [Example 47, (2R,4R)-5-Biphenyl-4-yl-2-methanesulfonylamino-4-[(1H-[1,2,3]triazole-4-carbonyl)amino]pentanoic Acid] is higher in Ki: 1.26 to 3.16 nM for the first, 3.16 to 10 nM for the second. The first binds more tightly here.

First: Cc1cc(C(=O)NC(Cc2ccc(-c3cc(Cl)ccc3F)cc2)C[C@@H](CC#N)C(=O)O)sn1 (single isomer, unassigned) [Example 52-2]
Second: N#CC[C@H](C[C@@H](Cc1ccc(-c2cc(Cl)ccc2F)cc1)NC(=O)c1cnsc1)C(=O)O [Example 52-3, (2S,4S)-5-(5′-Chloro-2′-fluorobiphenyl-4-yl)-2-cyanomethyl-4-[(isothiazole-4-carbonyl)amino]pentanoic acid]
The Ki of the first is higher: 3.16 to 10 nM for the first, 1.26 to 3.16 nM for the second.

`CC(C)c1coc(C(=O)N[C@H](Cc2ccc(-c3cc(Cl)ccc3F)cc2)C[C@@H](NC(=O)[C@@H](N)CO)C(=O)O)n1` [Example 42-2, (2R,4R)-2-((S)-2-Amino-3-hydroxypropionylamino)-5-(5′-chloro-2′-fluorobiphenyl-4-yl)-4-[(4-isopropyloxazole-2-carbonyl)amino]pentanoic Acid] and `COC[C@H](C[C@@H](Cc1ccc(-c2cc(Cl)ccc2F)cc1)NC(=O)c1c[nH]c(=O)o1)C(=O)O` [Example 2-10, (2S,4S)-5-(5′-Chloro-2′-fluorobiphenyl-4-yl)-2-methoxymethyl-4-[(2-oxo-2,3-dihydro-oxazole-5-carbonyl)amino]pentanoic acid] fall in the same range of Ki: 1.26 to 3.16 nM for the first, 1.26 to 3.16 nM for the second.

Same assay, conditions: recombinant human NEP, fluorogenic peptide substrate, 37° C.

For `COC[C@H](C[C@@H](Cc1ccc(-c2cccc(Cl)c2)cc1)NC(=O)c1noc(=O)[nH]1)C(=O)O` [Example 4-3, (2S,4S)-5-(3′-Chlorobiphenyl-4-yl)-2-methoxymethyl-4-[(5-oxo-4,5-dihydro-[1,2,4]oxadiazole-3-carbonyl)amino]pentanoic acid], the pKi was “≧9.0”.
For `COc1cnc(C(=O)N[C@H](Cc2ccc(-c3cc(Cl)ccc3F)cc2Cl)C[C@@H](N)C(=O)O)o1` [Example 18-11, (2R,4R)-2-Amino-5-(3,5′-dichloro-2′-fluoro-biphenyl-4-yl)-4-[(5-methoxyoxazole-2-carbonyl)amino]pentanoic acid], the pKi was “≧9.0”.
For `CNC(=O)c1cc(C(=O)N[C@H](Cc2ccc(-c3cc(Cl)ccc3F)cc2)C[C@@H](N)C(=O)O)[nH]n1` [Example 16-21, (2R,4R)-2-Amino-5-(5′-chloro-2′-fluorobiphenyl-4-yl)-4-[(5-methylcarbamoyl-2H-pyrazole-3-carbonyl)amino]pentanoic acid], the pKi was “≧9.0”.
For `CCOC[C@H](C[C@@H](Cc1ccc(-c2cccc(Cl)c2)cc1)NC(=O)c1cc(C(C)=O)[nH]n1)C(=O)O` [Example 9-2, (2S,4S)-4-[(5-Acetyl-1H-pyrazole-3-carbonyl)-amino]-5-(3′-chlorobiphenyl-4-yl)-2-ethoxymethylpentanoic acid], the pKi was “≧9.0”.
With `CCOC[C@H](C[C@@H](Cc1ccc(-c2cc(Cl)ccc2F)cc1)NC(=O)c1ncccn1)C(=O)O` [Example 7-11, (2S,4S)-5-(5′-Chloro-2′-fluorobiphenyl-4-yl)-2-ethoxymethyl-4-[(pyrimidine-2-carbonyl)amino]pentanoic acid] the pKi was “≧9.0”.
With `CCOC[C@H](C[C@@H](Cc1ccc(-c2cc(Cl)ccc2F)cc1)NC(=O)c1ncco1)C(=O)O` [Example 7-6, (2S,4S)-5-(5′-Chloro-2′-fluorobiphenyl-4-yl)-2-ethoxymethyl-4-[(oxazole-2-carbonyl)amino]pentanoic acid] the pKi was “≧9.0”.
For `COC[C@H](C[C@@H](Cc1ccc(-c2cc(Cl)ccc2F)cc1)NC(=O)c1ccc(C(F)(F)F)cn1)C(=O)O` [Example 2-14, (2S,4S)-5-(5′-Chloro-2′-fluorobiphenyl-4-yl)-2-methoxymethyl-4-[(5-trifluoromethylpyridine-2-carbonyl)amino]pentanoic acid], the pKi was “≧9.0”.
`NCCCCCC(=O)N[C@H](C[C@@H](Cc1ccc(-c2cc(Cl)ccc2F)cc1)NC(=O)c1c[nH]nn1)C(=O)O` [Example 70, (2R,4R)-2-(6-Aminohexanoylamino)-5-(5′-chloro-2′-fluorobiphenyl-4-yl)-4-[(1H-[1,2,3]triazole-4-carbonyl)amino]pentanoic Acid] was tested, and the pKi was “≧9.0”.
For `NCC(=O)NC[C@H](C[C@@H](Cc1ccc(-c2cc(Cl)ccc2F)cc1)NC(=O)c1cnn[nH]1)C(=O)O` [Example 44-1, (2S,4S)-2-[(2-Aminoacetylamino)methyl]-5-(5′-chloro-2′-fluorobiphenyl-4-yl)-4-[(3H-[1,2,3]triazole-4-carbonyl)amino]pentanoic acid], the pKi was “≧9.0”.
